Results on five compounds are retold here after PMC7000521, “Hazard Characterization of Synthetic Cathinones Using Viability, Monoamine Reuptake, and Neuronal Activity Assays” (Frontiers in Neuroscience, 2020).

Data set [1] relates to rat primary cortical cultures. The experiment in a line: MEA recordings of spontaneous neuronal network activity. The data set is classed as cell-based. The conditions noted are these: for IC50: Rattus norvegicus, value [CI]; for Increased potency to inhibit neuronal activity (MSR, MBR, and MNBR) compared to cathinones lacking the lengthened alkyl chain: acute and prolonged exposure. The protocol:
Rat pups born of timed-pregnant Wistar rats (Envigo, Horst, Netherlands) were sacrificed on postnatal day 0–1 to prepare cortical cultures grown on MEA plates as described previously ([Zwartsen et al., 2018], [2019]). Briefly, a 50 μL drop of cell suspension was added to each well (1 × 10^5 cells/well) of a 48-well MEA plate (Axion BioSystems Inc., Atlanta, GA, United States, M768-GL1-30Pt200) coated with 0.1% polyethyleneimine (PEI). After 2 h, 450 μL dissection medium was added to each well. The day after the isolation (day in vitro 1; DIV1), 450 μL/well dissection medium was replaced with 450 μL/well glutamate medium. At DIV4, 450 μL/well glutamate medium was replaced with 450 μL/well FBS medium (for medium supplements see [Zwartsen et al., 2018], [2019]). Cultures were kept in FBS medium at 37°C, 5% CO2/95% air atmosphere until use at DIV9-10.
Microelectrode array recordings were performed as described in [Zwartsen et al. (2019)]. In short, neuronal activity was measured using a Maestro 768-channel amplifier (Axion BioSystems Inc., Atlanta, GA, United States). Baseline spontaneous neuronal activity was recorded for 30 min at 37°C, after which wells were exposed to selected synthetic cathinones under sterile conditions. Next, neuronal activity was determined during a 30 min “acute exposure” recording. […] Next, exposure medium was replaced with fresh FBS medium and the plate was incubated for 19 h at 37°C, until the 30 min “washout” recording, i.e., 24 h after the start of the exposure.
Effects of 3-MMC, 4-MMC, 4-MEC, pentedrone, 3-MMCinternet, and 4-MECinternet were tested at 1–1000 μM (final concentration). At the day of exposure, stocks and dilutions were freshly made in NB-A FBS medium (for medium supplements see [Zwartsen et al., 2019]). Data on methylone, α-PVP, and MDPV exposure have been published previously in [Zwartsen et al. (2019)]. For each experimental condition, primary cultures from two to three different isolations were used and tested in four to five plates (Nplates). The number of wells (nwells) represents the number of replicates per condition.
Microelectrode array data were analyzed as described in [Zwartsen et al. (2019)]. In short, parameters of interest after acute exposure were expressed as a percentage of the parameters prior to exposure to obtain a treatment ratio for each well (paired comparison; parameterexposure/parameterbaseline as % of control wells). The parameters after prolonged exposure and washout were also expressed as a percentage of the baseline parameters. Next, treatment ratios were grouped per parameter, condition, drug [e.g., mean spike rate (MSR) 10 μM 3-MMC] and exposure scenario (acute, prolonged, or washout).
Outliers (>mean ± 2×SD) for MSR (5.0%) were used to exclude wells on all parameters. Outliers for mean burst rate (MBR; 2.6%) and mean network burst rate (MNBR; 1.4%) were used to exclude wells on specific parameters (burst, network burst, and synchronicity parameters, or network burst and synchronicity parameters, respectively). Finally, the acute, prolonged, and washout control treatment ratios were set to 100% and treatment ratios of exposed wells were normalized to the average treatment ratio of medium control wells of the corresponding parameter and exposure scenario. Treatment ratios of exposed wells were averaged per parameter (e.g., MSR), condition (e.g., 100 μM), drug (e.g., methylone), and exposure scenario (e.g., acute exposure) and used for further statistical analyses [see [Zwartsen et al. (2019)] for more details on criteria, parameters, and exposure scenarios]. Neuronal activity (as % of control) is expressed as mean ± SEM of nwells from Nplates. As the spike, burst, and network burst rates were among the most sensitive parameters, these parameters are presented in the manuscript. Additional parameters are presented in Supplementary Figure 2.
Concentration–response curves were made for transporter, MEA, and cell viability assays. […]

Data set [2] is described as follows: Estimated human brain concentrations and comparison with IC50 values. As to conditions: recreational human blood/serum/plasma concentration multiplied with BPF. An excerpt: (§1) To correlate reported effect concentrations to expected concentrations in the human brain during recreational use a brain partitioning factor (BPF; […]) was applied, as actual human brain concentrations following recreational drug use are unknown. Expected concentrations in the human brain were estimated by multiplying recreational human blood/serum/plasma concentrations with the BPF. Human recreational blood, serum, or plasma levels were obtained from literature (driving under the influence or accidental non-fatal intoxications). The BPF was determined for each drug by dividing the brain concentration by the blood/serum/plasma concentration found in human post mortem reports, or animal studies (rat/mice) when human data were insufficient.
To identify the relevance of effects and potentially harmful drugs, effect concentrations (IC50 values) were related to the estimated human brain concentration during recreational use [(brain), Table 2]. By comparing these concentrations, the most relevant neurotoxic mechanisms of cathinones can be identified. […] Only 4-MEC and MDPV inhibited neuronal activity during acute exposure at concentrations within (MDPV) or close to (4-MEC) the estimated brain concentration.

For data set [3] the following is noted: recreational use (driving under the influence or accidental non-fatal intoxications); ref literature; cited from earlier work.
Data set [4] is described as follows: Brain partitioning factor (BPF). The conditions noted are these: brain concentration divided by blood/serum/plasma concentration from human post mortem reports or animal studies (rat/mice).
Source text: as §1

[5] abbreviates: 0.5 h, acute exposure 30 min, read-out: Neuronal activity IC50, mean burst rate (MBR), acute.
The mark [6] stands for this setting: 0.5 h, acute exposure 30 min, read-out: Neuronal activity IC50, mean network burst rate (MNBR), acute.
[7] abbreviates: 0.5 h, acute exposure 30 min, read-out: Neuronal activity IC50, mean spike rate (MSR), acute.
Setting [8] is: 19 h washout, 24 h after start of exposure, read-out: Neuronal activity IC50, mean burst rate (MBR), recovery.
Setting [9] is: 19 h washout, 24 h after start of exposure, read-out: Neuronal activity IC50, mean network burst rate (MNBR), recovery.
Setting [10] is: 19 h washout, 24 h after start of exposure, read-out: Neuronal activity IC50, mean spike rate (MSR), recovery.
The mark [11] stands for this setting: prolonged exposure 4.5 h, read-out: Neuronal activity IC50, mean burst rate (MBR), prolonged.
Where [12] appears, read: prolonged exposure 4.5 h, read-out: Neuronal activity IC50, mean network burst rate (MNBR), prolonged.
[13] abbreviates: prolonged exposure 4.5 h, read-out: Neuronal activity IC50, mean spike rate (MSR), prolonged.

Like-named read-outs stand apart in the source and are kept apart here.

With `CNC(C)C(=O)c1cccc(C)c1` (stereo not shown) [3-MMC, 2-(methylamino)-1-(3-methylphenyl) propan-1-one], the IC50 in data set [1] (setting [5]) was 79 µM; in data set [1] (setting [6]), 67 µM; in data set [1] (setting [7]), 65 µM; in data set [1] (setting [8]) it was over 1000 µM; in data set [1] (setting [9]), over 1000 µM. Also, the “Estimated human (brain) concentration” value in data set [2] is 0.005 to 9.0 µM. The “Human (serum/blood/plasma) concentration” value in data set [3] is recorded as 0.005–9.0^A,b,^c μM.
In the case of `CCNC(C)C(=O)c1ccc(C)cc1` (stereo not shown) [4-MEC, 2-(ethylamino)-1-(4-methylphenyl) propan-1-one], the IC50 in data set [1] (setting [5]) was 74 µM; in data set [1] (setting [6]), 68 µM; in data set [1] (setting [7]), 73 µM; in data set [1] (setting [8]), over 1000 µM; in data set [1] (setting [9]) it was over 1000 µM; in data set [1] (setting [10]) it was over 1000 µM. In data set [4], the “Brain partitioning factor (BPF)” value is reported as 1.5–6.2^4. In addition, the “Estimated human (brain) concentration” value in data set [2] was 0.2 to 29 µM. Further, the “Human (serum/blood/plasma) concentration” value in data set [3] is listed as 0.1–4.7^a^,d μM.
Regarding `CNC(C)C(=O)c1ccc(C)cc1` (stereo not shown) [4-MMC, 2-(methylamino)-1-(4-methylphenyl) propan-1-one], the IC50 is 118 µM in data set [1] (setting [5]); 120 µM in data set [1] (setting [6]); 101 µM in data set [1] (setting [7]); over 1000 µM in data set [1] (setting [8]); over 1000 µM in data set [1] (setting [9]); over 1000 µM in data set [1] (setting [10]). Further, the figures for the IC50 in data set [1] (setting [11]), in data set [1] (setting [12]) and in data set [1] (setting [13]) were 147 µM, 167 µM and 114 µM, respectively. In addition, the “Brain partitioning factor (BPF)” value in data set [4] is recorded as 0.7–6.2^1,^–2,^3. The “Estimated human (brain) concentration” value in data set [2] was 0.04 to 37 µM. For the same compound, in data set [3], the “Human (serum/blood/plasma) concentration” value is recorded as 0.05–6.0^a^,d,E,f μM.
Take `CCCC(C(=O)c1ccc2c(c1)OCO2)N1CCCC1` (stereo not shown) [MDPV, 1-(1,3-benzodioxol-5-yl)-2-pyrro lidin-1-ylpentan-1-one]: the “Increased potency to inhibit neuronal activity (MSR, MBR, and MNBR) compared to cathinones lacking the lengthened alkyl chain” value in data set [1] is given as “two to fourfold”. The “Brain partitioning factor (BPF)” value in data set [4] was 0.8–4.4^4,11,12. The “Estimated human (brain) concentration” value in data set [2] is 0.02 to 30 µM. Moreover, the “Human (serum/blood/plasma) concentration” value in data set [3] is listed as 0.02–6.9^d,L,M,n μM.
As for `CCCC(NC)C(=O)c1ccccc1` (stereo not shown) [Pentedrone, 2-(methylamino)-1-phenyl pentan-1-one], the IC50 was 26 µM in data set [1] (setting [5]); 23 µM in data set [1] (setting [6]); 23 µM in data set [1] (setting [7]); 28 µM in data set [1] (setting [11]); 28 µM in data set [1] (setting [12]); 27 µM in data set [1] (setting [13]). Further, the “Increased potency to inhibit neuronal activity (MSR, MBR, and MNBR) compared to cathinones lacking the lengthened alkyl chain” value in data set [1] is on record as “two to fourfold”. In data set [1] (highest concentration (1000 μM), washout 24 h after start of exposure), the “Neuronal activity following washout” value is recorded as “remained fully inhibited”. Moreover, the “Brain partitioning factor (BPF)” value in data set [4] is reported as 1.6^8. The “Estimated human (brain) concentration” value in data set [2] is 0.06 to 3.0 µM. In data set [3], the “Human (serum/blood/plasma) concentration” value is 0.04–1.9^a^,d,I μM.
